Species: Rattus norvegicus
Assay: DrugMatrix - Regimen: Daily Repeat
Type: toxicity, organism-based, Sprague-Dawley
Parameters: regimen Daily Repeat, gender Male, age 6-8 weeks
Conditions: in vivo, po, route oral GAVAGE, vehicle 100 % WATER; for ABSOLUTE BASOPHIL / ABSOLUTE EOSINOPHIL / ABSOLUTE LYMPHOCYTE / ABSOLUTE MONOCYTE / ABSOLUTE SEGMENTED NEUTROPHIL / BASOPHIL / EOSINOPHIL / ERYTHROCYTE COUNT / HEMATOCRIT / HEMOGLOBIN / LEUKOCYTE COUNT / LYMPHOCYTE / MEAN CORPUSCULAR HEMOGLOBIN / MEAN CORPUSCULAR HEMOGLOBIN CONCENTRATION / MEAN CORPUSCULAR VOLUME / MONOCYTE / NEUTROPHIL / NUCLEATED RED BLOOD CELLS / PLATELET COUNT: tissue Blood; for ALANINE AMINOTRANSFERASE / ALBUMIN / ALKALINE PHOSPHATASE / ASPARTATE AMINOTRANSFERASE / BLOOD UREA NITROGEN / CARBON DIOXIDE / CHLORIDE / CHOLESTEROL / CREATINE PHOSPHOKINASE / CREATININE / GLUCOSE / LACTATE DEHYDROGENASE / LIPASE / PHOSPHORUS / POTASSIUM / SODIUM / TOTAL BILIRUBIN / TOTAL PROTEIN / URIC ACID: tissue Plasma
[1] = 175 mg/kg, 120 h, dose level High, time 5 day
[2] = […], 72 h, dose 5.8 mg/Kg, dose level Low, time 3 day
[3] = […], 120 h, dose 5.8 mg/Kg, dose level Low, time 5 day

SMILES: O=c1[nH]c(=O)n(C2CCCO2)cc1F (centres undefined) [TEGAFUR]
- ABSOLUTE BASOPHIL [1]: 0 CELLS/uL
- ABSOLUTE EOSINOPHIL [1]: 47 CELLS/uL
- ABSOLUTE LYMPHOCYTE [1]: 11945 CELLS/uL
- ABSOLUTE MONOCYTE [1]: 125.33 CELLS/uL
- ABSOLUTE SEGMENTED NEUTROPHIL [1]: 416 CELLS/uL
- BASOPHIL [1]: 0%
- EOSINOPHIL [1]: 0.33%
- ERYTHROCYTE COUNT [1]: 6.13 x10E6/uL
- HEMATOCRIT [1]: 37.33%
- HEMOGLOBIN [1]: 14.9 G/DL
- LEUKOCYTE COUNT [1]: 12.53 x10E3/uL
- LYMPHOCYTE [1]: 95.33%
- MEAN CORPUSCULAR HEMOGLOBIN [1]: 24.33 pg
- MEAN CORPUSCULAR HEMOGLOBIN CONCENTRATION [1]: 39.9 G/DL
- MEAN CORPUSCULAR VOLUME [1]: 60.9 fL
- MONOCYTE [1]: 1%
- NEUTROPHIL [1]: 3.33%
- NUCLEATED RED BLOOD CELLS [1]: 0 /100WBC
- PLATELET COUNT [1]: 1252.33 x10E3/uL
- ALANINE AMINOTRANSFERASE [1]: 40 u/L
- ALBUMIN [1]: 4.43 G/DL
- ALKALINE PHOSPHATASE [1]: 333 u/L
- ASPARTATE AMINOTRANSFERASE [1]: 113 u/L
- BLOOD UREA NITROGEN [1]: 19.67 mg/dL
- CARBON DIOXIDE [1]: 26 mmol/L
- CHLORIDE [1]: 106 MEQ/L
- CHOLESTEROL [1]: 80.67 mg/dL
- CREATINE PHOSPHOKINASE [1]: 419.33 u/L
- CREATININE [1]: 0.24 mg/dL
- GLUCOSE [1]: 146.33 mg/dL
- LACTATE DEHYDROGENASE [1]: 797.67 u/L
- LIPASE [1]: 9.33 u/L
- PHOSPHORUS [1]: 10.2 mg/dL
- POTASSIUM [1]: 5.48 MEQ/L
- SODIUM [1]: 149.83 MEQ/L
- TOTAL BILIRUBIN [1]: 0.17 mg/dL
- TOTAL PROTEIN [1]: 6.13 G/DL
- URIC ACID [1]: 1.43 mg/dL
- ABSOLUTE BASOPHIL [2]: 0 CELLS/uL
- ABSOLUTE EOSINOPHIL [2]: 50 CELLS/uL
- ABSOLUTE LYMPHOCYTE [2]: 13948.67 CELLS/uL
- ABSOLUTE MONOCYTE [2]: 166.67 CELLS/uL
- ABSOLUTE SEGMENTED NEUTROPHIL [2]: 1434.67 CELLS/uL
- BASOPHIL [2]: 0%
- EOSINOPHIL [2]: 0.33%
- ERYTHROCYTE COUNT [2]: 5.51 x10E6/uL
- HEMATOCRIT [2]: 34.4%
- HEMOGLOBIN [2]: 13.43 G/DL
- LEUKOCYTE COUNT [2]: 15.6 x10E3/uL
- LYMPHOCYTE [2]: 89.67%
- MEAN CORPUSCULAR HEMOGLOBIN [2]: 24.37 pg
- MEAN CORPUSCULAR HEMOGLOBIN CONCENTRATION [2]: 39.03 G/DL
- MEAN CORPUSCULAR VOLUME [2]: 62.43 fL
- MONOCYTE [2]: 1%
- NEUTROPHIL [2]: 9%
- NUCLEATED RED BLOOD CELLS [2]: 0 /100WBC
- PLATELET COUNT [2]: 1387 x10E3/uL
- ALANINE AMINOTRANSFERASE [2]: 47.33 u/L
- ALBUMIN [2]: 4.23 G/DL
- ALKALINE PHOSPHATASE [2]: 325.33 u/L
- ASPARTATE AMINOTRANSFERASE [2]: 100.33 u/L
- BLOOD UREA NITROGEN [2]: 15.33 mg/dL
- CARBON DIOXIDE [2]: 28.33 mmol/L
- CHLORIDE [2]: 100.33 MEQ/L
- CHOLESTEROL [2]: 86 mg/dL
- CREATINE PHOSPHOKINASE [2]: 626 u/L
- CREATININE [2]: 0.22 mg/dL
- GLUCOSE [2]: 138.67 mg/dL
- LACTATE DEHYDROGENASE [2]: 764.67 u/L
- LIPASE [2]: 9.67 u/L
- PHOSPHORUS [2]: 12.43 mg/dL
- POTASSIUM [2]: 6.48 MEQ/L
- SODIUM [2]: 143.37 MEQ/L
- TOTAL BILIRUBIN [2]: 0.17 mg/dL
- TOTAL PROTEIN [2]: 5.97 G/DL
- URIC ACID [2]: 1.57 mg/dL
- ABSOLUTE BASOPHIL [3]: 0 CELLS/uL
- ABSOLUTE EOSINOPHIL [3]: 53.67 CELLS/uL
- ABSOLUTE LYMPHOCYTE [3]: 12194.67 CELLS/uL
- ABSOLUTE MONOCYTE [3]: 43 CELLS/uL
- ABSOLUTE SEGMENTED NEUTROPHIL [3]: 1808.67 CELLS/uL
- BASOPHIL [3]: 0%
- EOSINOPHIL [3]: 0.33%
- ERYTHROCYTE COUNT [3]: 5.38 x10E6/uL
- HEMATOCRIT [3]: 32.9%
- HEMOGLOBIN [3]: 13.1 G/DL
- LEUKOCYTE COUNT [3]: 14.1 x10E3/uL
- LYMPHOCYTE [3]: 86.67%
- MEAN CORPUSCULAR HEMOGLOBIN [3]: 24.33 pg
- MEAN CORPUSCULAR HEMOGLOBIN CONCENTRATION [3]: 39.83 G/DL
- MEAN CORPUSCULAR VOLUME [3]: 61.1 fL
- MONOCYTE [3]: 0.33%
- NEUTROPHIL [3]: 12.67%
- NUCLEATED RED BLOOD CELLS [3]: 0.33 /100WBC
- PLATELET COUNT [3]: 1303.67 x10E3/uL
- ALANINE AMINOTRANSFERASE [3]: 51 u/L
- ALBUMIN [3]: 4.13 G/DL
- ALKALINE PHOSPHATASE [3]: 305.67 u/L
- ASPARTATE AMINOTRANSFERASE [3]: 93.67 u/L
- BLOOD UREA NITROGEN [3]: 16 mg/dL
- CARBON DIOXIDE [3]: 24.33 mmol/L
- CHLORIDE [3]: 102.67 MEQ/L
- CHOLESTEROL [3]: 77.33 mg/dL
- CREATINE PHOSPHOKINASE [3]: 365 u/L
- CREATININE [3]: 0.22 mg/dL
- GLUCOSE [3]: 140 mg/dL
- LACTATE DEHYDROGENASE [3]: 424.33 u/L
- LIPASE [3]: 9.33 u/L
- PHOSPHORUS [3]: 11.73 mg/dL
- POTASSIUM [3]: 6.27 MEQ/L
- SODIUM [3]: 142.73 MEQ/L
- TOTAL BILIRUBIN [3]: 0.27 mg/dL
- TOTAL PROTEIN [3]: 5.97 G/DL
- URIC ACID [3]: 1.6 mg/dL
